Data published in ChEMBL document CHEMBL4477255, “Charting the chemical space around the (iso)indoline scaffold, a comprehensive approach towards multitarget directed ligands” (Bioorg Med Chem Lett, 2016).

Experiments:
Format in all cases: cell-based
[1] = molecular target: T1, 5-hydroxytryptamine receptor 6 (Homo sapiens, UniProt P50406); experiment: Displacement of [3H]LSD from human recombinant 5-HT6 receptor expressed in CHO-K1 cells at 1 uM incubated for 3 hrs by scintillation counting analysis
T1 sequence (P50406 whole entry): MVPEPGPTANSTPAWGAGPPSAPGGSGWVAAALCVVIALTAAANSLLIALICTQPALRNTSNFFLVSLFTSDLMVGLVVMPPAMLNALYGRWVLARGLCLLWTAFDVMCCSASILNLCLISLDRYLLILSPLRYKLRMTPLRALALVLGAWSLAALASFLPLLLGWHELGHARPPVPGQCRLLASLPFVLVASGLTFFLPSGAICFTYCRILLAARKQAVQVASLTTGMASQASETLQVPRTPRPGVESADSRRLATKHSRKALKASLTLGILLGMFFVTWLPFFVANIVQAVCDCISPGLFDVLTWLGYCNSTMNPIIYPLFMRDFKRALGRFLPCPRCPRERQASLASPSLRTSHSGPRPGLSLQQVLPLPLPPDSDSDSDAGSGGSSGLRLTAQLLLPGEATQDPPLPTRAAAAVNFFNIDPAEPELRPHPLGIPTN

D(3) dopamine receptor [2] = molecular target: T2, D(3) dopamine receptor (Homo sapiens, UniProt P35462); experiment: Displacement of [3H]raclopride from human recombinant dopamine D3 receptor expressed in CHO-K1 cells at 1 uM incubated for 120 mins by liquid scintillation counting analysis
T2 sequence (P35462 whole entry): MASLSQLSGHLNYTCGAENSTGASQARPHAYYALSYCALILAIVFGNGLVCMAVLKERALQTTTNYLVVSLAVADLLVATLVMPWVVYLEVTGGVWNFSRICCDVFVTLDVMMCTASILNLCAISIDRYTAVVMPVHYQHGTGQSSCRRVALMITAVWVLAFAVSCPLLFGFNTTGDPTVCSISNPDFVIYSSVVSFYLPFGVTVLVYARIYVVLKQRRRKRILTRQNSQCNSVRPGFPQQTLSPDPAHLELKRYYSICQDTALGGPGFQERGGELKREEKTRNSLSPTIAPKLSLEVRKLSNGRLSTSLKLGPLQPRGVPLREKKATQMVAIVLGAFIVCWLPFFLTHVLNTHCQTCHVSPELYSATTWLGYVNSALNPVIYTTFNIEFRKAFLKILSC

D(2) dopamine receptor [3] = molecular target: T3, D(2) dopamine receptor (Homo sapiens, UniProt P14416); experiment: Displacement of [3H]raclopride from human recombinant dopamine D2 long receptor expressed in CHO-K1 cells at 1 uM incubated for 120 mins by scintillation counting analysis
T3 sequence (P14416 whole entry): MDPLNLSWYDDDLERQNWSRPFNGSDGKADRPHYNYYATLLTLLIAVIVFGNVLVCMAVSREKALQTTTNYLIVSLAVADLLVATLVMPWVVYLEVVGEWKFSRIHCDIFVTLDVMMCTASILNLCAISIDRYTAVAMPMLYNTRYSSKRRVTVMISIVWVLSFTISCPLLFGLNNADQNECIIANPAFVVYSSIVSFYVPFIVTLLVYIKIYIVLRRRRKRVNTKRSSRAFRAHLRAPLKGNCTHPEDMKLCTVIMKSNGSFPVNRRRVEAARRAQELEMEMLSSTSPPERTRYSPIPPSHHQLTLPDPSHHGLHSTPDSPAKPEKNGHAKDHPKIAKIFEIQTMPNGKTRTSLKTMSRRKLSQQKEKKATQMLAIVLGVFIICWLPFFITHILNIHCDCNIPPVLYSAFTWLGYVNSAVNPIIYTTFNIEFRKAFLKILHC

Histamine H3 receptor [4] = molecular target: T4, Histamine H3 receptor (Homo sapiens, UniProt Q9Y5N1); experiment: Displacement of N-alpha-[methyl-3H]methylhistamine dihydrochloride from human recombinant histamine H3 receptor expressed in CHO-K1 cells at 1 uM incubated for 30 mins by liquid scintillation counting analysis
T4 sequence (Q9Y5N1 whole entry): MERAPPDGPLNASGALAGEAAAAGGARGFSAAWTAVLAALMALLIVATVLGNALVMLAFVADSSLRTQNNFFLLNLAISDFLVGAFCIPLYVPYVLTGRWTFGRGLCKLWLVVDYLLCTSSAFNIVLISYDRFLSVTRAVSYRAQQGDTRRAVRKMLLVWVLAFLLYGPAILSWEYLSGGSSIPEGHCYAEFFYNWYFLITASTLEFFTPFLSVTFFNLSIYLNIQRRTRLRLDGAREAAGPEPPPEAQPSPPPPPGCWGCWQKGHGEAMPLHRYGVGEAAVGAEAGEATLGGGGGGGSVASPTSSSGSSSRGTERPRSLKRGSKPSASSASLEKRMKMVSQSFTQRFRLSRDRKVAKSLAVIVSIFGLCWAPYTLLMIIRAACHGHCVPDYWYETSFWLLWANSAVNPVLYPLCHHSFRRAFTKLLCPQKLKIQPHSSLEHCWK

[5] = molecular target: T1, 5-hydroxytryptamine receptor 6; experiment: Displacement of [3H]LSD from human recombinant 5-HT6 receptor expressed in CHO-K1 cells incubated for 3 hrs by scintillation counting analysis
D(3) dopamine receptor [6] = molecular target: T2, D(3) dopamine receptor; experiment: Displacement of [3H]raclopride from human recombinant dopamine D3 receptor expressed in CHO-K1 cells incubated for 120 mins by liquid scintillation counting analysis
D(2) dopamine receptor [7] = molecular target: T3, D(2) dopamine receptor; experiment: Displacement of [3H]raclopride from human recombinant dopamine D2 long receptor expressed in CHO-K1 cells incubated for 120 mins by scintillation counting analysis
Histamine H3 receptor [8] = molecular target: T4, Histamine H3 receptor; experiment: Displacement of N-alpha-[methyl-3H]methylhistamine dihydrochloride from human recombinant histamine H3 receptor expressed in CHO-K1 cells incubated for 30 mins by liquid scintillation counting analysis
Homo sapiens [9] = species on record: Homo sapiens; experiment: Selectivity index, ratio of Ki for human recombinant dopamine D3 receptor expressed in CHO-K1 cells to Ki for human recombinant 5-HT6 receptor expressed in CHO-K1 cells
Homo sapiens [10] = species on record: Homo sapiens; experiment: Selectivity index, ratio of Ki for human recombinant dopamine D2 long receptor expressed in CHO-K1 cells to Ki for human recombinant 5-HT6 receptor expressed in CHO-K1 cells
Homo sapiens [11] = species on record: Homo sapiens; experiment: Selectivity index, ratio of Ki for human recombinant histamine H3 receptor expressed in CHO-K1 cells to Ki for human recombinant 5-HT6 receptor expressed in CHO-K1 cells
Homo sapiens [12] = species on record: Homo sapiens; experiment: Selectivity index, ratio of Ki for human recombinant dopamine D3 receptor expressed in CHO-K1 cells to Ki for dopamine D2 long receptor expressed in CHO-K1 cells

| Structure (SMILES) | inhibition [1] | inhibition (D(3) dopamine receptor [2]) | inhibition (D(2) dopamine receptor [3]) | inhibition (Histamine H3 receptor [4]) | Ki [5] | Ki (D(3) dopamine receptor [6]) | Ki (D(2) dopamine receptor [7]) | Ki (Histamine H3 receptor [8]) | Ratio Ki (Homo sapiens [9]) | Ratio Ki (Homo sapiens [10]) | Ratio Ki (Homo sapiens [11]) | Ratio Ki (Homo sapiens [12]) |
| --- | --- | --- | --- | --- | --- | --- | --- | --- | --- | --- | --- | --- |
| O=S(=O)(c1ccccc1)N1CCc2c(N3CCN(C4CCC4)CC3)cccc21 | 51% | 60% | 60% | 59% | 266 nM | 449 nM | 355 nM | 580 nM | – | – | – | – |
| CCN1CCN(c2ccc3c(c2)CCN3S(=O)(=O)c2ccccc2)CC1 | 53% | 94% | 50% | 65% | 129 nM | 48 nM | 438 nM | 280 nM | – | – | – | – |
| CN1CCC(c2ccc3c(c2)CCN3S(=O)(=O)c2ccccc2)CC1 | 86% | 48% | 14% | 59% | 128 nM | 401 nM | – | 299 nM | – | – | – | – |
| O=S(=O)(c1ccccc1)N1CCc2c(C3CCN(C4CCC4)CC3)cccc21 | 1% | 9% | 48% | 82% | – | – | 1040 nM | 214 nM | – | – | – | – |
| CCN1CCC(c2cccc3c2CCN3S(=O)(=O)c2ccccc2)CC1 | 59% | 58% | 25% | 50% | 170 nM | 591 nM | – | 317 nM | – | – | – | – |
| CN1CCC(c2cccc3c2CN(S(=O)(=O)c2ccccc2)C3)CC1 | 94% | 14% | 14% | 14% | 9 nM | – | – | – | > 100 | > 100 | > 100 | – |
| CCN1CCN(c2ccc3c(c2)CN(S(=O)(=O)c2ccccc2)C3)CC1 | -7% | 61% | 22% | 60% | – | 688 nM | – | 294 nM | – | – | – | – |
| CCN1CCN(c2cccc3c2CCN3S(=O)(=O)c2ccccc2)CC1 | 89% | 91% | 80% | 50% | 31 nM | 72 nM | 84 nM | 344 nM | – | – | – | 1.5 |
| O=S(=O)(c1ccccc1)N1Cc2cccc(C3CCNCC3)c2C1 | 101% | 16% | 17% | 4% | 0.43 nM | – | – | – | > 100 | > 100 | > 100 | – |
